Earlier results as cited in patent US20150182483A1 (priority 2014, published 2015).

How the values were obtained:
[1] = system: chemical diabetes induced by streptozotocin
[2] = prior art, Kalogeropoulou et al. 2009
[3] = intravenous, subjects
[4] = humans
[5] = pH at which two predominant microspecies have net charge of zero
[6] = D-lysine treatment with streptozotocin diabetes

Row | SMILES | Blood glucose [1, 6] | Glycated lens proteins [1, 6] | Glycated serum proteins [1, 6] | HbA1 [1, 6] | Urinary d-lysine [1, 6] | Excretion ([1]; animal model) | Nephrotoxicity ([1]; animal model) | non-enzymatic glycation of hemoglobin, lens proteins and serum proteins ([1]; animal model of chemical diabetes induced by streptozotocin) | Response (hypoglycemic effect) [2] | Effect on blood ammonia [3] | Effect on blood glucose [3] | Proposed upper limit (LD 50 not firmly established) [4] | Isoelectric point (pI) [5]
1 | NCCCC[C@@H](N)C(=O)O [D-lysine] | 25.1 mmol/L | 4.90% | 1.4% | 3.0% | 15.9 mmol/L | excreted in the urine | not nephrotoxic | decrease | – | – | – | – | –
2 | NCCCC[C@H](N)C(=O)O [L-lysine] | – | – | – | – | – | – | – | – | Lower blood glucose | without significantly increasing blood ammonia | lowers blood glucose | 300-400 mg×kg^−1xd^−1 | approximately 9.7
